Measured values: US9504669B2, “Spliceostatin analogs and methods for their preparation” (PFIZER INC., priority 2012, dated 2016)
Structures can show the parent of a compound that is named as a salt.

Assays:
Format in all cases: cell-based
[1] = test system: MDA-MB-361-DYT2 (breast cancer) cells; experiment: In vitro cell assay (MTS cell viability), MDA-MB-361-DYT2; settings: 96 h, free compounds (natural products and synthetic analogs); cell viability 96 hours after treatment
Method: (§1) Target expressing (BT474 (breast cancer), N87 (gastric cancer), HCC1954 (breast cancer), MDA-MB-361-DYT2 (breast cancer)) or non-expressing (MDA-MB-468) cells were seeded in 96-well cell culture plates for 24 hours before treatment. Cells were treated with 3-fold serially diluted antibody-drug conjugates or free compounds (i.e., no antibody conjugated to the drug) in duplicate at 10 concentrations. Cell viability was determined by CellTiter 96® AQueous One Solution Cell Proliferation MTS Assay (Promega, Madison Wis.) 96 hours after treatment. Relative cell viability was determined as percentage of untreated control. IC50 values were calculated using a four parameter logistic model #203 with XLfit v4.2 (IDBS, Guildford, Surry, UK). The potency ranged upward from 0.0002 nm. Similar procedures and techniques were employed.

[2] = test system: BT474 (breast cancer) cells; experiment: In vitro cell assay (MTS cell viability), BT474; settings: Homo sapiens, BT-474; free compounds (natural products and synthetic analogs); cell viability 96 hours after treatment
Method: as §1

[3] = test system: N87 (gastric cancer) cells; experiment: In vitro cell assay (MTS cell viability), N87; settings: 96 h, free compounds (natural products and synthetic analogs); cell viability 96 hours after treatment
Method: as §1

Structure (SMILES) | IC50 [1] [nM] | IC50 [2] [nM] | IC50 [3] [nM]
CC(/C=C/[C@@H]1C[C@]2(CO2)C[C@@H](CC(N)=O)O1)=C\C[C@@H]1O[C@H](C)[C@H](NC(=O)/C=C\[C@H](C)O)C[C@@H]1C [#B39, (2Z,4S)—N-[(2R,3R,5S,6S)-6-{(2E,4E)-5-[(3S,5S,7S)-7-(2-amino-2-oxoethyl)-1,6-dioxaspiro[2.5]oct-5-yl]-3-methylpenta-2,4-dien-1-yl}-2,5-dimethyltetrahydro-2H-pyran-3-yl]-4-hydroxypent-2-enamide] | 7.67 | 3.4 | 4.65
CSCCNC(=O)C[C@@H]1C[C@@]2(CO2)C[C@@H](/C=C/C(C)=C/C[C@@H]2O[C@H](C)[C@H](NC(=O)/C=C\[C@H](C)OC(C)=O)C[C@@H]2C)O1 [#B103, (2S,3Z)-5-{[(2R,3R,5S,6S)-2,5-dimethyl-6-{(2E,4E)-3-methyl-5-[(3S,5S,7S)-7-(2-{[2-(methylsulfanyl)ethyl]amino}-2-oxoethyl)-1,6-dioxaspiro[2.5]oct-5-yl]penta-2,4-dien-1-yl}tetrahydro-2H-pyran-3-yl]amino}-5-oxopent-3-en-2-yl acetate] | 4.25 | 4.03 | 1.6
CC(=O)O[C@@H](C)/C=C\C(=O)N[C@@H]1C[C@H](C)[C@H](C/C=C(C)/C=C/[C@@H]2C[C@]3(CO3)C[C@@H](CC(=O)NCCS(C)(=O)=O)O2)O[C@@H]1C [#B104, (2S,3Z)-5-{[(2R,3R,5S,6S)-2,5-dimethyl-6-{(2E,4E)-3-methyl-5-[(3S,5S,7S)-7-(2-{[2-(methylsulfonyl)ethyl]amino}-2-oxoethyl)-1,6-dioxaspiro[2.5]oct-5-yl]penta-2,4-dien-1-yl}tetrahydro-2H-pyran-3-yl]amino}-5-oxopent-3-en-2-yl acetate] | 9.13 | 4.02 | 1.41
CSCCN(C)C(=O)C[C@@H]1C[C@@]2(CO2)[C@H](O)[C@@H](/C=C/C(C)=C/C[C@@H]2O[C@H](C)[C@H](NC(=O)/C=C\[C@H](C)OC(C)=O)C[C@@H]2C)O1 [#B82, (2S,3Z)-5-{[(2R,3R,5S,6S)-6-{(2E,4E)-5-[(3R,4R,5R,7S)-4-hydroxy-7-(2-{methyl[2-(methylsulfanyl)ethyl]amino}-2-oxoethyl)-1,6-dioxaspiro[2.5]oct-5-yl]-3-methylpenta-2,4-dien-1-yl}-2,5-dimethyltetrahydro-2H-pyran-3-yl]amino}-5-oxopent-3-en-2-yl acetate] | 0.251 | 0.288 | 0.12
CC(=O)O[C@@H](C)/C=C\C(=O)N[C@@H]1C[C@H](C)[C@H](C/C=C(C)/C=C/[C@@H]2C[C@]3(CO3)C[C@@H](CN)O2)O[C@@H]1C [#B140, (2S,3Z)-5-{[(2R,3R,5S,6S)-6-{(2E,4E)-5-[(3R,5S,7S)-7-(aminomethyl)-1,6-dioxaspiro[2.5]oct-5-yl]-3-methylpenta-2,4-dien-1-yl}-2,5-dimethyltetrahydro-2H-pyran-3-yl]amino}-5-oxopent-3-en-2-yl acetate, acetate salt] | 0.632 | 0.517 | 1.01
CSCCN(C)C(=O)C[C@@H]1C[C@@]2(CO2)C[C@@H](/C=C/C(C)=C/C[C@@H]2O[C@H](C)[C@H](NC(=O)/C=C\[C@H](C)OC(C)=O)C[C@@H]2C)O1 [#B102, (2S,3Z)-5-{[(2R,3R,5S,6S)-2,5-dimethyl-6-{(2E,4E)-3-methyl-5-[(3S,5S,7S)-7-(2-{methyl[2-(methylsulfanyl)ethyl]amino}-2-oxoethyl)-1,6-dioxaspiro[2.5]oct-5-yl]penta-2,4-dien-1-yl}tetrahydro-2H-pyran-3-yl]amino}-5-oxopent-3-en-2-yl acetate] | 32.9 | 10.7 | 7.79
COC(=O)C[C@@H]1C[C@@]2(CO2)C[C@@H](/C=C/C(C)=C/C[C@@H]2O[C@H](C)[C@H](NC(=O)/C=C\[C@H](C)OC(=O)CCCSC)C[C@@H]2C)O1 [#B149, (2S,3Z)-5-{[(2R,3R,5S,6S)-6-{(2E,4E)-5-[(3S,5S,7S)-7-(2-methoxy-2-oxoethyl)-1,6-dioxaspiro[2.5]oct-5-yl]-3-methylpenta-2,4-dien-1-yl}-2,5-dimethyltetrahydro-2H-pyran-3-yl]amino}-5-oxopent-3-en-2-yl 4-(methylsulfanyl)butanoate] | > 100 |  | > 100
CC(/C=C/[C@@H]1C[C@]2(CO2)C[C@@H](CC(N)=O)O1)=C\C[C@@H]1O[C@H](C)[C@H](NC(=O)/C=C\C(C)N)C[C@@H]1C (stereo partly drawn) [#B272, (2Z)-4-amino-N-[(2R,3R,5S,6S)-6-{(2E,4E)-5-[(3S,5S,7S)-7-(2-amino-2-oxoethyl)-1,6-dioxaspiro[2.5]oct-5-yl]-3-methylpenta-2,4-dien-1-yl}-2,5-dimethyltetrahydro-2H-pyran-3-yl]pent-2-enamide] | > 100 |  | > 100
CC(=O)O[C@@H](C)/C=C\C(=O)N[C@@H]1C[C@H](C)[C@H](C/C=C(C)/C=C/[C@H]2O[C@H](CC(=O)N3CCCCN3)C[C@@]3(CO3)[C@@H]2O)O[C@@H]1C [#B179, (2S,3Z)-5-({(2R,3R,5S,6S)-6-[(2E,4E)-5-{(3R,4R,5R,7S)-4-hydroxy-7-[2-oxo-2-(tetrahydropyridazin-1(2H)-yl)ethyl]-1,6-dioxaspiro[2.5]oct-5-yl}-3-methylpenta-2,4-dien-1-yl]-2,5-dimethyltetrahydro-2H-pyran-3-yl}amino)-5-oxopent-3-en-2-yl acetate] | 1.29 |  | 0.299
COC(=O)C[C@@H]1C[C@@]2(CO2)[C@H](OC)[C@@H](/C=C/C(C)=C/C[C@@H]2O[C@H](C)[C@H](NC(=O)/C=C\[C@H](C)OC)C[C@@H]2C)O1 [#B240, methyl [(3R,5S,7R,8R)-8-methoxy-7-{(1E,3E)-5-[(2S,3S,5R,6R)-5-{[(2Z,4S)-4-methoxypent-2-enoyl]amino}-3,6-dimethyltetrahydro-2H-pyran-2-yl]-3-methylpenta-1,3-dien-1-yl}-1,6-dioxaspiro[2.5]oct-5-yl]acetate] | 5.05 |  | 9.79
COC(=O)C[C@@H]1C[C@@]2(CO2)[C@H](O)[C@@H](/C=C/C(C)=C/C[C@@H]2O[C@H](C)[C@H](NC(=O)/C=C\[C@H](C)O)C[C@@H]2C)O1 [#B235, methyl [(3R,5S,7R,8R)-8-hydroxy-7-{(1E,3E)-5-[(2S,3S,5R,6R)-5-{[(2Z,4S)-4-hydroxypent-2-enoyl]amino}-3,6-dimethyltetrahydro-2H-pyran-2-yl]-3-methylpenta-1,3-dien-1-yl}-1,6-dioxaspiro[2.5]oct-5-yl]acetate] | 36.8 |  | 16.4
CC(=O)O[C@@H](C)/C=C\C(=O)N[C@@H]1C[C@H](C)[C@H](C/C=C(C)/C=C/[C@H]2O[C@H](CC(=O)N[C@H]3C[C@@H](O)C3)C[C@@]3(CO3)[C@@H]2O)O[C@@H]1C [#B142, (2S,3Z)-5-{[(2R,3R,5S,6S)-6-{(2E,4E)-5-[(3R,4R,5R,7S)-4-hydroxy-7-{2-[(cis-3-hydroxycyclobutyl)amino]-2-oxoethyl}-1,6-dioxaspiro[2.5]oct-5-yl]-3-methylpenta-2,4-dien-1-yl}-2,5-dimethyltetrahydro-2H-pyran-3-yl]amino}-5-oxopent-3-en-2-yl acetate] | 55.5 |  | 11.2
COC(=O)C[C@@H]1C[C@@](O)(CCl)[C@H](O)[C@@H](/C=C/C(C)=C/C[C@@H]2O[C@H](C)[C@H](NC(=O)/C=C\[C@H](C)OC(C)=O)C[C@@H]2C)O1 [#B284, (1S,5R)-5-{(1E,3E)-5-[(2S,3S,5R,6R)-5-{[(2Z,4S)-4-(acetyloxy)pent-2-enoyl]amino}-3,6-dimethyltetrahydro-2H-pyran-2-yl]-3-methylpenta-1,3-dien-1-yl}-1,5-anhydro-3-C-(chloromethyl)-2-deoxy-1-(2-methoxy-2-oxoethyl)-D-erythro-pentitol] | 2.03 |  | 1.3
CC(=O)O[C@@H](C)/C=C\C(=O)N[C@@H]1C[C@H](C)[C@H](C/C=C(C)/C=C/[C@H]2O[C@H](CC(=O)Nc3ccc(C(N)=O)cc3)C[C@@]3(CO3)[C@@H]2O)O[C@@H]1C [#B267, (2S,3Z)-5-{[(2R,3R,5S,6S)-6-{(2E,4E)-5-[(3R,4R,5R,7S)-7-{2-[(4-carbamoylphenyl)amino]-2-oxoethyl}-4-hydroxy-1,6-dioxaspiro[2.5]oct-5-yl]-3-methylpenta-2,4-dien-1-yl}-2,5-dimethyltetrahydro-2H-pyran-3-yl]amino}-5-oxopent-3-en-2-yl acetate] | 23.8 |  | 3.44
CC(=O)O[C@@H](C)/C=C\C(=O)N[C@@H]1C[C@H](C)[C@H](C/C=C(C)/C=C/[C@H]2O[C@H](CC(=O)NN(C)C)C[C@@]3(CO3)[C@@H]2O)O[C@@H]1C [#B177, (2S,3Z)-5-({(2R,3R,5S,6S)-6-[(2E,4E)-5-{(3R,4R,5R,7S)-7-[2-(2,2-dimethylhydrazinyl)-2-oxoethyl]-4-hydroxy-1,6-dioxaspiro[2.5]oct-5-yl}-3-methylpenta-2,4-dien-1-yl]-2,5-dimethyltetrahydro-2H-pyran-3-yl}amino)-5-oxopent-3-en-2-yl acetate] | 5.65 |  | 1.61
CCCNC(=O)C[C@]1(O)C[C@@]2(CO2)[C@H](O)[C@@H](/C=C/C(C)=C/C[C@@H]2O[C@H](C)[C@H](NC(=O)/C=C\[C@H](C)OC(C)=O)C[C@@H]2C)O1 [#B275, (2S,3Z)-5-({(2R,3R,5S,6S)-6-[(2E,4E)-5-{(3R,4R,5R,7S)-4,7-dihydroxy-7-[2-oxo-2-(propylamino)ethyl]-1,6-dioxaspiro[2.5]oct-5-yl}-3-methylpenta-2,4-dien-1-yl]-2,5-dimethyltetrahydro-2H-pyran-3-yl}amino)-5-oxopent-3-en-2-yl acetate] | 22.2 |  | 5.33
